The record followed here is ChEMBL document CHEMBL2331446, “Discovery of a potential anti-inflammatory agent: 3-oxo-29-noroleana-1,9(11),12-trien-2,20-dicarbonitrile” (J Med Chem, 2013).

Data set [1] relates to RAW264.7. Briefly: Antiinflammatory activity in mouse RAW264.7 cells assessed as inhibition of LPS-induced NO production at 50 uM incubated for 2 hrs prior to LPS-challenge measured after 24 hrs by Griess method. Format: functional.
Data set [2] has as its system RAW264.7. Description: Cytotoxicity against mouse LPS-challenged RAW264.7 cells at 80 uM after 24 hrs by MTT assay. The note with it: raw264.7, 24 h. Format: cell-based.
Data set [3] relates to RAW264.7. Description: Cytotoxicity against mouse RAW264.7 cells at 80 uM after 24 hrs by MTT assay. Format: cell-based. Conditions: raw264.7, 24 h.
Data set [4] relates to RAW264.7. Briefly: Antiinflammatory activity in mouse RAW264.7 cells assessed as inhibition of LPS-induced NO production incubated for 2 hrs prior to LPS-challenge measured after 24 hrs by Griess method. Format: functional, cell-based. Background: Nitrite, measured by Griess reagent, commonly stands in for NO production.
Data set [5] has as its system Mus musculus. Briefly: Antiinflammatory activity in ICR mouse assessed as reversal in LPS-induced weight loss at 20 mg/kg, ip administered for 5 days prior to LPS-challenge measured up to day 8 relative to control. It is filed as functional, organism-based. On the set-up: dose 20 mg/kg.
Data set [6] deals with Mus musculus. Description: Antiinflammatory activity in ICR mouse assessed as protection against LPS-induced sepsis at 20 mg/kg, ip administered for 5 days prior to LPS-challenge measured after 2 hrs. Format: functional, organism-based. Also noted: dose 20 mg/kg.
For data set [7], the system named is Mus musculus. Description: Antiinflammatory activity in ICR mouse assessed as reversal in LPS-induced weight loss at 20 mg/kg, ip administered for 5 days prior to LPS-challenge measured from day 9 to 11 relative to control. On the set-up: dose 20 mg/kg. Format: functional, organism-based.
Data set [8] concerns the target T1, NF-kappa-B inhibitor alpha (Mus musculus) (UniProt Q9Z1E3).
T1 sequence (whole entry): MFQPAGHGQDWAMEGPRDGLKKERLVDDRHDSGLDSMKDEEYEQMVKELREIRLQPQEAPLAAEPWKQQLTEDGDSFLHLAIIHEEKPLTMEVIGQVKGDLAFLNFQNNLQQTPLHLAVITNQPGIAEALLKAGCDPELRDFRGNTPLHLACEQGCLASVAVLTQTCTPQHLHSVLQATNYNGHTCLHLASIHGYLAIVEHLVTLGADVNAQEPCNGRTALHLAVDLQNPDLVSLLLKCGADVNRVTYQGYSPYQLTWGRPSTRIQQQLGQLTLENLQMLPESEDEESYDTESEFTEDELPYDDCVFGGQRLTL
Description: Inhibition of IkappaBalpha degradation in mouse LPS-induced RAW264.7 cells assessed as increase in cytosolic IkappaB level at 75 uM incubated for 2 hrs prior to LPS-challenge measured after 30 mins by Western blot analysis. Format: cell-based. Background: In western blotting, separated proteins are transferred to a membrane and probed.

In data set [9] the test system is Mus musculus. Description: Antiinflammatory activity in ICR mouse assessed as protection against LPS-induced sepsis at 50 mg/kg, ip administered for 5 days prior to LPS-challenge measured after 2 hrs. Format: functional, organism-based. On the set-up: dose 50 mg/kg.
In data set [10] the target is T1, NF-kappa-B inhibitor alpha (Mus musculus). Description: Inhibition of IkappaB phosphorylation in mouse RAW264.7 cells assessed as decrease in LPS-induced phospho-IkappaBalpha level at 75 uM incubated for 2 hrs prior to LPS-challenge measured after 30 mins by Western blot analysis. It is filed as cell-based.
The test system of data set [11] is RAW264.7. Briefly: Antiinflammatory activity in mouse RAW264.7 cells assessed as inhibition of LPS-stimulated TNF-alpha mRNA expression at 75 uM incubated for 2 hrs prior to LPS-challenge measured after 8 hrs by quantitative real time PCR analysis. Format: functional, cell-based. For orientation: Quantitative PCR measures a nucleic acid by following its amplification.

Data set [12] concerns RAW264.7. Description: Antiinflammatory activity in mouse RAW264.7 cells assessed as inhibition of LPS-induced iNOS protein expression at 75 uM incubated for 2 hrs prior to LPS-challenge measured after 24 hrs by Western blot analysis. Format: functional, cell-based.
For data set [13], the system named is RAW264.7. Description: Antiinflammatory activity in mouse RAW264.7 cells assessed as inhibition of LPS-stimulated IL-1beta mRNA expression at 75 uM incubated for 2 hrs prior to LPS-challenge measured after 8 hrs by quantitative real time PCR analysis. It is filed as functional, cell-based.
The test system of data set [14] is RAW264.7. Description: Antiinflammatory activity in mouse RAW264.7 cells assessed as inhibition of LPS-stimulated IL-6 mRNA expression at 75 uM incubated for 2 hrs prior to LPS-challenge measured after 8 hrs by quantitative real time PCR analysis. Format: functional, cell-based.
Data set [15] relates to RAW264.7. Description: Inhibition of ERK phosphorylation in mouse LPS-induced RAW264.7 cells at 75 uM incubated for 2 hrs prior to LPS-challenge measured after 30 mins by Western blot analysis. Format: cell-based.
Data set [16] has as its system RAW264.7. Description: Inhibition of JNK phosphorylation in mouse LPS-induced RAW264.7 cells at 75 uM incubated for 2 hrs prior to LPS-challenge measured after 30 mins by Western blot analysis. It is filed as cell-based.
In data set [17] the target is MAP kinase p38 (Mus musculus) (UniProt P47811+O08911+Q9WUI1+Q9Z1B7). Briefly: Inhibition of MAPK p38 in mouse LPS-induced RAW264.7 cells at 75 uM incubated for 2 hrs prior to LPS-challenge measured after 30 mins by Western blot analysis. Format: cell-based.
Data set [18] addresses T1, NF-kappa-B inhibitor alpha (Mus musculus). Briefly: Inhibition of IkappaBalpha in mouse RAW264.7 cells assessed as inhibition of LPS-stimulated NF-kappaB p65 subunit accumulation in nucleus at 75 uM incubated for 2 hrs prior to LPS-challenge measured after 30 mins by Western blot analysis. Format: cell-based.

Calls of active or inactive are those of the source. No cut-off for these calls is given here.

In general, inhibition refers to the percentage by which the read-out fell short of the control. As a reminder, the IC50 is the concentration at which inhibition is half-maximal. For the compound `CC1(C)C(=O)CC[C@]2(C)C3=CC=C4[C@@H]5C[C@@](C)(C(=O)O)CC[C@]5(C)CC[C@@]4(C)[C@]3(C)CC[C@@H]12`, the inhibition at 50 µM in [1] was 7.36%. Moreover, the Activity result in data set [2] and in data set [3] was “Non-toxic” each time. Also, in [4], the IC50 is > 50 µM.
Take `COC(=O)[C@@]1(C)CC[C@]2(C)CC[C@]3(C)C(=CC=C4[C@@]5(C)C=CC(=O)C(C)(C)[C@@H]5CC[C@]43C)[C@@H]2C1`: the inhibition at 50 µM in data set [1] amounted to 5.5%. Moreover, the Activity entry in data set [2] and in data set [3] was “Non-toxic” in each case. The IC50 in data set [4] was > 50 µM.
As to `C[C@@H]1C[C@H]2[C@@H]3CCC4=CC(=O)C=C[C@]4(C)[C@@]3(F)[C@@H](O)C[C@]2(C)[C@@]1(O)C(=O)CO` [DEXAMETHASONE], the inhibition at 50 µM in data set [1] is 98.2%. Further, the outcome in data set [5] was inactive. Further, the outcome in data set [6] and in data set [7] was Active. Moreover, in data set [4], the IC50 stood at 1.43 µM.
For `CC1(C)C(=O)C=C[C@]2(C)C3=CC=C4[C@@H]5C[C@@](C)(C(=O)O)CC[C@]5(C)CC[C@@]4(C)[C@]3(C)CC[C@@H]12`, the inhibition at 50 µM in data set [1] was found to be 25.1%. For the same compound, the Activity result in [2] and in data set [3] was “Non-toxic” throughout. Moreover, the IC50 in data set [4] was > 50 µM.
Turning to `CC1(C)C(=O)C(O)=C[C@]2(C)C3=CC=C4[C@@H]5C[C@@](C)(C(=O)n6ccnc6)CC[C@]5(C)CC[C@@]4(C)[C@]3(C)CC[C@@H]12`, the inhibition at 50 µM in data set [1] came out at 99%. Further, the Activity entry in data set [2] and in data set [3] was “Non-toxic” in each case. Besides, the IC50 in data set [4] amounted to 6.22 µM.
On to `CC1(C)[C@@H](O)CC[C@]2(C)[C@H]3C(=O)C=C4[C@@H]5C[C@@](C)(C(=O)O)CC[C@]5(C)CC[C@@]4(C)[C@]3(C)CC[C@@H]12` [ENOXOLONE], for which the inhibition result in data set [8], in data set [10], in data set [11], in [12], in [13] and in data set [14] was “Active” each time. Also, the inhibition entry in data set [15], in [16], in data set [17] and in data set [18] was “Active” in each case. The outcome in data set [9] was Active. The inhibition at 50 µM in [1] amounted to 5.12%. The 50% inhibitory concentration (IC50) in [4] stood at 188 µM.
With `COC(=O)[C@@]1(C)CC[C@]2(C)CC[C@]3(C)C(=CC=C4[C@@]5(C)C=C(O)C(=O)C(C)(C)[C@@H]5CC[C@]43C)[C@@H]2C1`, the inhibition at 50 µM in data set [1] worked out at 33.3%. In addition, the Activity entry in [2] and in [3] was “Non-toxic” throughout. The IC50 in data set [4] came out at 38.6 µM.
Turning to `COC(=O)[C@@]1(C)CC[C@]2(C)CC[C@]3(C)C(=CC=C4[C@@]5(C)C=C(I)C(=O)C(C)(C)[C@@H]5CC[C@]43C)[C@@H]2C1`, in data set [1], the inhibition at 50 µM was found to be 15.3%. In addition, the Activity result in [2] and in data set [3] was “Non-toxic” each time. Further, the concentration for half-maximal inhibition (IC50) in data set [4] is > 50 µM.
`CC1(C)C(=O)C=C[C@]2(C)C3=CC=C4[C@@H]5C[C@@](C)(C(N)=O)CC[C@]5(C)CC[C@@]4(C)[C@]3(C)CC[C@@H]12`: the inhibition at 50 µM in data set [1] was 32.5%. Further, the Activity result in data set [2] and in data set [3] was “Non-toxic” each time. Also, the IC50 in data set [4] amounted to 40.1 µM.
For the compound `CC1(C)C(=O)C(O)=C[C@]2(C)C3=CC=C4[C@@H]5C[C@@](C)(C(=O)O)CC[C@]5(C)CC[C@@]4(C)[C@]3(C)CC[C@@H]12`, in data set [1], the inhibition at 50 µM worked out at 42.1%. Also, the Activity result in data set [2] and in [3] was “Non-toxic” each time. In addition, the half-inhibitory concentration (IC50) in [4] was found to be 32.8 µM.
For `CNC(=O)[C@@]1(C)CC[C@]2(C)CC[C@]3(C)C(=CC=C4[C@@]5(C)C=C(O)C(=O)C(C)(C)[C@@H]5CC[C@]43C)[C@@H]2C1`, in data set [1], the inhibition at 50 µM stood at 27.6%. Further, the Activity result in data set [2] and in data set [3] was “Non-toxic” throughout. The IC50 in data set [4] is > 50 µM.
As to `CC1(C)C(=O)C(I)=C[C@]2(C)C3=CC=C4[C@@H]5C[C@@](C)(C(=O)O)CC[C@]5(C)CC[C@@]4(C)[C@]3(C)CC[C@@H]12`, in data set [1], the inhibition at 50 µM stood at 60.3%. The Activity entry in data set [2] and in data set [3] was “Non-toxic” each time. For the same compound, in [4], the 50% inhibitory concentration (IC50) is 20.1 µM.
For the compound `CC1(C)C(=O)C(I)=C[C@]2(C)C3=CC=C4[C@@H]5C[C@@](C)(C#N)CC[C@]5(C)CC[C@@]4(C)[C@]3(C)CC[C@@H]12`, the inhibition at 50 µM in data set [1] came out at 52.9%. Besides, the Activity entry in [2] and in [3] was “Non-toxic” in each case. In addition, the IC50 in [4] worked out at 25.1 µM.
In the case of `CC1(C)C(=O)C(O)=C[C@]2(C)C3=CC=C4[C@@H]5C[C@@](C)(C(N)=O)CC[C@]5(C)CC[C@@]4(C)[C@]3(C)CC[C@@H]12`, in data set [1], the inhibition at 50 µM worked out at 37.5%. Besides, the Activity entry in [2] and in [3] was “Non-toxic” each time. For the same compound, the IC50 in data set [4] amounted to 35.1 µM.
`CC1(C)[C@@H](O)CC[C@]2(C)C3=CC=C4[C@@H]5C[C@@](C)(C(=O)O)CC[C@]5(C)CC[C@@]4(C)[C@]3(C)CC[C@@H]12`: in data set [1], the inhibition at 50 µM is 15.6%. Moreover, the Activity result in data set [2] and in [3] was “Non-toxic” each time. Moreover, the half-inhibitory concentration (IC50) in [4] is > 50 µM.
Take `CC1(C)C(=O)C(C#N)=C[C@]2(C)C3=CC=C4[C@@H]5C[C@@](C)(C(=O)O)CC[C@]5(C)CC[C@@]4(C)[C@]3(C)CC[C@@H]12`: the inhibition at 50 µM in [1] came out at 98.4%. Further, the Activity result in data set [2] and in data set [3] was “Non-toxic” in each case. The IC50 in data set [4] stood at 3.08 µM.
Consider `CC1(C)C(=O)C=C[C@]2(C)C3=CC=C4[C@@H]5C[C@@](C)(C#N)CC[C@]5(C)CC[C@@]4(C)[C@]3(C)CC[C@@H]12`, for which the inhibition at 50 µM in [1] was 50.2%. For the same compound, the Activity entry in data set [2] and in [3] was “Non-toxic” throughout. The concentration for half-maximal inhibition (IC50) in data set [4] was 28.5 µM.
As to `COC(=O)[C@@]1(C)CC[C@]2(C)CC[C@]3(C)C(=CC=C4[C@@]5(C)C=C(C#N)C(=O)C(C)(C)[C@@H]5CC[C@]43C)[C@@H]2C1`, the inhibition at 50 µM in data set [1] was 67.3%. Besides, the Activity result in data set [2] and in data set [3] was “Non-toxic” each time. The IC50 in [4] is 20 µM.
